From patent publication US20210405025A1, “IDENTIFYING COMPOUNDS FOR TREATING CANCER AND USE THEREOF” (THE UAB RESEARCH FOUNDATION, priority 2018, published 2021)
Structures can show the parent of a compound that is named as a salt. Starred links: 1 amine or outer side, 2 acyl side, 3 side chain; linkers in the order of their positions; H or OH if unused. Positions of bridges follow the written chain, without caps; N, C: chain ends. Non-standard residues stand in square brackets, D forms with d. Residues, ends and D or L forms follow the SMILES beside them. Chains are numbered I, II in the order given. Actinocin(9to1) = Cc1c2oc3c(C)ccc(C(=O)[*:1])c3nc-2c(C(=O)[*:2])c(N)c1=O; NMeV = CN[C@H](C(=O)O)C(C)C; Sar = CNCC(=O)O

system: relapsed AML cells; test: Drug sensitivity assay, 1,536-well, 3-day culture with individual approved drugs at 10 μM, viability by alamarBlue; format: cell-based, human; settings: not given
How it was run: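 Three-day exposure of primary AML cells to individual drugs in 1,536-well format, viability read as percent live cells. Cells were thawed, cultured overnight, sorted by FACS for viable blasts and plated at 4,000-4,500 cells/5 μL in cytokine-supplemented IMDM/BIT medium.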

Compound	#Cases >70% cell death
COC(=O)C1=C(C)NC(C)=C(C(=O)OCCCN2CCC(c3ccccc3)(c3ccccc3)CC2)[C@@H]1c1cccc([N+](=O)[O-])c1 [DEXNIGULDIPINE]	8

same assay, conditions: number of relapsed AML cases out of 18 tested with >70% cell death; 10 μM, 3-day culture

Compound	#Cases >70% cell death
COc1cc([C@@H]2c3cc4c(cc3[C@@H](O[C@@H]3O[C@@H]5CO[C@@H](c6cccs6)O[C@H]5[C@H](O)[C@H]3O)[C@H]3COC(=O)[C@H]23)OCO4)cc(OC)c1O [TENIPOSIDE]	10
Clc1ccc(CO/N=C(\Cn2ccnc2)c2ccc(Cl)cc2Cl)c(Cl)c1 [OXICONAZOLE]	1
Nc1c2ccccc2nc2ccccc12 [AMINACRINE]	18
Cc1c2oc3c(C)ccc(C(=O)N[C@@H]4C(=O)N[C@H](C(C)C)C(=O)N5CCC[C@H]5C(=O)N(C)CC(=O)N(C)[C@@H](C(C)C)C(=O)O[C@@H]4C)c3nc-2c(C(=O)N[C@@H]2C(=O)N[C@H](C(C)C)C(=O)N3CCC[C@H]3C(=O)N(C)CC(=O)N(C)[C@@H](C(C)C)C(=O)O[C@@H]2C)c(N)c1=O [DACTINOMYCIN] (I: T[dV]P[Sar][NMeV] / II: T[dV]P[Sar][NMeV]; ester I:1-I:C, II:1-II:C; linker I:N-II:N via Actinocin(9to1))	17
CC[C@@]1(O)C(=O)OCc2c1cc1n(c2=O)Cc2cc3ccccc3nc2-1 [CAMPTOTHECIN]	12
CCCCCCCCCCCCCCCC[N+](C)(C)CCN(Cc1ccc(OC)cc1)c1ncccn1 [THONZONIUM BROMIDE]	18
CCCCCCCCCCCC[N+](C)(C)CCOc1ccccc1 [DOMIPHEN BROMIDE]	16
C#C[C@]1(O)CC[C@H]2[C@@H]3CCC4=Cc5oncc5C[C@]4(C)[C@H]3CC[C@@]21C [DANAZOL]	1
COc1ccc(CCN2CCC(Nc3nc4ccccc4n3Cc3ccc(F)cc3)CC2)cc1 [ASTEMIZOLE]	7
Cc1cnc(C(=O)O)c[n+]1[O-] [ACIPIMOX]	1
OC(Cn1cncn1)(Cn1cncn1)c1ccc(F)cc1F [FLUCONAZOLE]	1
COC(=O)Nc1nc2ccc(C(=O)c3ccccc3)cc2[nH]1 [MEBENDAZOLE]	5
C[C@@H]1C[C@H]2[C@@H]3CCC4=CC(=O)C=C[C@]4(C)[C@@]3(F)[C@@H](O)C[C@]2(C)[C@@]1(O)C(=O)CO [DEXAMETHASONE]	2
c1ccc(-c2ccc(C(c3ccccc3)n3ccnc3)cc2)cc1 (centres unmarked) [BIFONAZOLE]	1
CC(C)C[C@H](NC(=O)CNC(=O)c1cc(Cl)ccc1Cl)B1OC(=O)C(CC(=O)O)(CC(=O)O)O1 [MLN9708]	1
CCN(CC)CCNC(=O)c1c(C)[nH]c(/C=C2\C(=O)Nc3ccc(F)cc32)c1C [SUNITINIB MALATE]	15
COCc1c(C(C)C)nc(C(C)C)c(/C=C/[C@@H](O)C[C@@H](O)CC(=O)O)c1-c1ccc(F)cc1 [CERIVASTATIN]	17
CC[C@@H](C(=O)O)[C@@H]1O[C@@H]([C@@H](C)[C@H](O)[C@H](C)C(=O)[C@H](CC)[C@H]2O[C@]3(C=C[C@@H](O)[C@]4(CC[C@@](C)([C@H]5CC[C@](O)(CC)[C@H](C)O5)O4)O3)[C@H](C)C[C@@H]2C)[C@@H](C)C[C@@H]1C [NARASIN]	8
O=C(Nc1ccc([N+](=O)[O-])cc1Cl)c1cc(Cl)ccc1O [NICLOSAMIDE]	1
CC(=O)OCC(=O)[C@@]12OC(C)(C)O[C@@H]1C[C@H]1[C@@H]3C[C@H](F)C4=CC(=O)C=C[C@]4(C)[C@@]3(F)[C@@H](O)C[C@@]12C [FLUOCINONIDE]	1
CCc1ccc(OCc2ccccc2C(=O)Nc2ccc3nc(C)cc(N)c3c2)cc1 [JTC-801]	18
Cc1cc(C(C)(C)CC(C)(C)C)ccc1OCCOCC[N+](C)(C)Cc1ccccc1.[Cl-] [METHYLBENZETHONIUM CHLORIDE]	16

Compound	#Cases >70% cell death
CC[C@@H](C(=O)[C@@H](C)[C@@H](O)[C@H](C)[C@@H]1O[C@@H]([C@@H](CC)C(=O)O)CC[C@@H]1C)[C@H]1O[C@]2(C=C[C@@H](O)[C@]3(CC[C@@](C)([C@H]4CC[C@](O)(CC)[C@H](C)O4)O3)O2)[C@H](C)C[C@@H]1C [SALINOMYCIN]	10
NC(=O)Nc1cc(-c2cccc(F)c2)sc1C(=O)N[C@H]1CCCNC1 [AZD-7762]	14
CN1CCN(CCCN2c3ccccc3Sc3ccc(Cl)cc32)CC1 [PROCHLORPERAZINE]	6
O=C(O)CCCCN(CCc1ccccc1OCc1ccc(CCc2ccccc2)cc1)Cc1ccc(C(=O)O)cc1	1
COCCOC(=O)C1=C(C)NC(C)=C(C(=O)OC/C=C/c2ccccc2)C1c1cccc([N+](=O)[O-])c1 (centres unmarked) [CILNIDIPINE]	1
CCOC(=O)/C=C(C)/C=C/C=C(C)/C=C/c1c(C)cc(OC)c(C)c1C [ETRETINATE]	1
COc1ccc(CN2CCN(C(c3ccc(F)cc3)c3ccc(F)cc3)CC2)c(OC)c1OC [LOMERIZINE]	7
CC(C)(C)NCC(O)c1ccc(O)c(CO)c1 (centres unmarked) [ALBUTEROL]	1
CN[C@@H]1[C@@H](O)[C@@H](O[C@@H]2[C@@H](O)[C@H](O[C@H]3OC(CN)=CC[C@H]3N)[C@@H](N)C[C@H]2N)OC[C@]1(C)O [SISOMICIN]	10
Cc1cc([C@@H](C)Nc2ccccc2C(=O)O)c2nc(N3CCOCC3)cc(=O)n2c1 [AZD-6482]	1
CN(C)CCCOc1nn(Cc2ccccc2)c2ccccc12 [BENZYDAMINE]	4
CNC(=O)c1cc(Oc2ccc(NC(=O)Nc3ccc(Cl)c(C(F)(F)F)c3)c(F)c2)ccn1 [REGORAFENIB]	9
CC[C@@]1(O)C(=O)OCc2c1cc1n(c2=O)Cc2cc3c(CN(C)C)c(O)ccc3nc2-1 [TOPOTECAN]	13
CCC(=O)O[C@]1(C(=O)CCl)[C@@H](C)C[C@H]2[C@@H]3CCC4=CC(=O)C=C[C@]4(C)[C@@]3(F)[C@@H](O)C[C@@]21C [CLOBETASOL PROPIONATE]	4
CCCCc1oc2ccc(NS(C)(=O)=O)cc2c1C(=O)c1ccc(OCCCN(CCCC)CCCC)cc1 [DRONEDARONE]	12
O=c1[nH]c(=O)n([C@H]2C[C@H](O)[C@@H](CO)O2)cc1C(F)(F)F [TRIFLURIDINE]	6
BENZALKONIUM CHLORIDE	15
COc1ccc2c(c1)/C(=C/c1cnc[nH]1)C(=O)N2 [SU-9516]	1
Cc1nc(Nc2ncc(C(=O)Nc3c(C)cccc3Cl)s2)cc(N2CCN(CCO)CC2)n1 [DASATINIB]	6
Nc1nc(Cl)nc2c1ncn2[C@H]1C[C@H](O)[C@@H](CO)O1 [CLADRIBINE]	17
Clc1ccc(C(Cn2ccnc2)OCc2ccsc2Cl)c(Cl)c1 (centres unmarked) [TIOCONAZOLE]	1
COc1cc([C@@H]2c3cc4c(cc3[C@@H](O[C@@H]3O[C@@H]5CO[C@@H](C)O[C@H]5[C@H](O)[C@H]3O)[C@H]3COC(=O)[C@H]23)OCO4)cc(OC)c1O [ETOPOSIDE]	5

Compound	#Cases >70% cell death
C#Cc1cccc(Nc2ncnc3cc(OCCOC)c(OCCO)cc23)c1 [OSI-420]	3
OC(CN1CCC(Cc2ccc(F)cc2)CC1)c1ccc(Cl)cc1 (centres unmarked) [ELIPRODIL]	1
CN1CCOC(c2ccccc2)c2ccccc2C1 (centres unmarked) [NEFOPAM]	2
CC(C)OC(=O)C(C)(C)Oc1ccc(C(=O)c2ccc(Cl)cc2)cc1 [FENOFIBRATE]	3
C=CCNC1=C2C[C@@H](C)C[C@H](OC)[C@H](O)[C@@H](C)/C=C(\C)[C@H](OC(N)=O)[C@@H](OC)/C=C\C=C(/C)C(=O)NC(=CC1=O)C2=O [TANESPIMYCIN (17-AAG), TANESPIMYCIN]	18
CCc1cc(Cl)c(OC)c(C(=O)NC[C@@H]2CCCN2CC)c1O [ETICLOPRIDE HYDROCHLORIDE]	1
CN(C)/N=N/c1[nH]cnc1C(N)=O [DACARBAZINE]	14
C[C@H]1O[C@@H](O[C@H]2[C@@H](O)C[C@H](O[C@H]3[C@@H](O)C[C@H](O[C@H]4CC[C@@]5(C)[C@H](CC[C@@H]6[C@@H]5CC[C@]5(C)[C@@H](C7=CC(=O)OC7)CC[C@]65O)C4)O[C@@H]3C)O[C@@H]2C)C[C@H](O)[C@@H]1O [DIGITOXIN]	18
CN(C)CC(=O)N1CCC(c2ccc(NC(=O)c3nc(C#N)c[nH]3)c(C3=CCCCC3)c2)CC1 [JNJ-28312141]	7
Cc1ccc(S(=O)(=O)NC(=O)NN2CC3CCCC3C2)cc1 (centres unmarked) [GLICLAZIDE]	1
COc1cc(CNC(=O)CCCC/C=C/C(C)C)ccc1O [CAPSAICIN]	1
Cc1cc2nc3ccc(N(C)C)cc3[s+]c2cc1N [TOLONIUM CHLORIDE]	11
IVERMECTIN	18
Nc1ncn([C@@H]2O[C@H](CO)[C@@H](O)[C@H]2O)c(=O)n1 [AZACYTIDINE]	8
Clc1ccc(COC(Cn2ccnc2)c2ccc(Cl)cc2Cl)c(Cl)c1 (centres unmarked) [MICONAZOLE]	1
OC1(c2ccc(Cl)c(C(F)(F)F)c2)CCN(CCCC(c2ccc(F)cc2)c2ccc(F)cc2)CC1 [PENFLURIDOL]	14
CO[C@H]1C[C@H](O[C@H]2[C@H](C)O[C@@H](O[C@@H]3/C(C)=C/C[C@@H]4C[C@@H](C[C@]5(C=C[C@H](C)[C@@H](C6CCCCC6)O5)O4)OC(=O)[C@@H]4C=C(C)[C@@H](O)[C@H]5OC/C(=C\C=C\[C@@H]3C)[C@]54O)C[C@@H]2OC)O[C@@H](C)[C@@H]1O [DORAMECTIN]	18
COc1ccc2c(c1)CN(C(=O)CCN1CCC(Cc3ccccc3)CC1)CCS2 [K201]	4
CN1C[C@H](C(=O)N[C@]2(C)O[C@@]3(O)[C@@H]4CCCN4C(=O)[C@H](Cc4ccccc4)N3C2=O)C[C@@H]2c3cccc4[nH]cc(c34)C[C@H]21 [DIHYDROERGOTAMINE MESYLATE]	1
CC[C@@]1(O)C(=O)OCc2c1cc1n(c2=O)Cc2cc3cc(O)ccc3nc2-1 [10-HYDROXYCAMPTOTHECIN]	12
